{"source": "patent US9522124B2", "about": "“Methods for treating Alzheimer's disease” (Wisconsin Alumni Research Foundation, priority 2011, dated 2016)", "key": {"[1]": {"biological_target": "T1, ATase2 (Homo sapiens, UniProt Q9UHE5)", "T1 construct": "myc (C); made in house", "T1 sequence (Q9UHE5 1-227)": "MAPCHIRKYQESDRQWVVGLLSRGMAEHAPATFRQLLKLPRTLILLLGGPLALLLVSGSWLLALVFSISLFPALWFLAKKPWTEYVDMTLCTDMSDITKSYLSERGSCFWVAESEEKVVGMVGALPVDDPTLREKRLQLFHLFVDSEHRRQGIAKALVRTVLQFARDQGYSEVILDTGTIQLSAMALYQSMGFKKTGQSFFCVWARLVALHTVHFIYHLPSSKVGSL", "test": "AcetylCoA:lysine acetyltransferase assay (fluorescent, affinity purified ATase2-myc)", "type": "biochemical", "method": "(§1) The acetyl:CoA lysine acetyltransferase activity of ATase1 and ATase2 was assayed as described before (Ko and Puglielli, 2009). Briefly, we adapted a commercially available fluorescent kit (cat. no. 10006515, Cayman Chemicals) as follows: as source of the enzymatic activity, we used affinity purified ATase1-myc and ATase2-myc at the final concentration of 300 ng/μl; as donor of the acetyl group, we used acetyl-CoA at the final concentration of 12.5 μM. […] The acetyltransferase assay was performed as recommended by the manufacturer.\n(§2) For kinetic analysis of ATase1 and ATase2 inhibition, the assays were performed in the presence of the indicated concentrations of compound 9, 19 and 9.I. The concentration of acetyl-CoA was varied from […]. Values were plotted as a Lineweaver-Burk plot using Graphpad Prism software.\n(§3) We previously described a fluorescent assay that is able to assess the acetylCoA:lysine acetyltransferase activity of ATase1 and ATase2 in vitro (Ko and Puglielli, 2009). The assay employs affinity purified ATase1 or ATase2 (as enzymes), acetyl-CoA (as donor of the acetyl group) and a recombinant peptide corresponding to the N-terminal tail of the histone protein H3 (as acceptor of the acetyl group). The H3 peptide was preferred to affinity purified BACE1 because it is acetylated in a conformation independent manner ((Ko and Puglielli, 2009) and data not shown) and, therefore, more suitable for large screening approaches. To identify possible ATase1 and ATase2 inhibitors we used the assay to screen a single library of 14,400 small molecules/compounds. The screen identified 186 small molecules/compounds able to inhibit ATase1, ATase2 or both in vitro. […] Each compound was then screened for cytotoxic properties by using multi-plex cytotoxicity assays on a variety of cell lines, including human neuroblastoma and human neuroglioma. […] The above 30 compounds were individually screened on human neuroglioma (H4) cells for their ability to reduce the levels of BACE1 and the generation of Aβ. Two compounds, 9 and 19, produced significant changes and were object of further study."}, "[2]": {"biological_target": "T2, ATase1 (Homo sapiens, UniProt Q9UHF3)", "T2 construct": "myc (C); made in house", "T2 sequence (Q9UHF3 1-227)": "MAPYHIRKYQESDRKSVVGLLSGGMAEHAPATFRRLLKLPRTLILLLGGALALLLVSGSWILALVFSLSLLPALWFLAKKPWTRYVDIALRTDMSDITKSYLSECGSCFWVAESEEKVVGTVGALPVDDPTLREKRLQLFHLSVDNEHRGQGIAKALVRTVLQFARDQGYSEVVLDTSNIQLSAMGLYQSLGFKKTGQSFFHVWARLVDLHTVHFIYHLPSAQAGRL", "test": "AcetylCoA:lysine acetyltransferase assay (fluorescent, affinity purified ATase1-myc)", "type": "biochemical", "method": "as §1, §2, §3"}, "[3]": {"system": "BACE1", "test": "Western blot of BACE1 in brain tissue homogenates of APP695/swe mice", "type": "in vivo, mouse", "conditions": "50 mg/kg/day in diet, 4 months", "method": "FIG. 16. Compound 9 decreases levels of BACE1 in brain tissue homogenates of APP695/swe transgenic mice. Compound 9 was administered to select transgenic mice for four months, beginning at weaning, with additional transgenic mice used as controls. Brain tissue homogenates were obtained from sacrificed transgenic mice and Western blot assessment of BACE1 in brain tissue homogenates was performed.\nA group of non-transgenic and APP695/swe mice were fed a diet containing 50 mg/kg/day of compound 9. Treatment started at weaning (˜6 weeks of age) and lasted 4 months. At the end of treatment, the animals were sacrificed and the electrophysiological properties of hippocampal brain slices (as induced by theta burst stimulation to the Schaffer collaterals) were studied."}, "[4]": {"system": "histone acetyltransferase p300/CBP", "test": "In vitro activity of histone acetyltransferase p300/CBP", "type": "biochemical", "conditions": "data not shown"}, "[5]": {"system": "ATase1 and ATase2", "test": "Western blot assessment of endogenous ATase1/ATase2 levels in H4 cells", "type": "cell-based, human", "conditions": "48 hours", "method": "FIG. 4. Compound 9 causes degradation of the ATases. (A) H4 cells were treated with the indicated compounds (10 μM) for 48 hours prior to Western blot assessment of BACE1 and ATase1/ATase2 levels in total cell lysates. (B, D and E) Quantification of changes are expressed as percent of control (no treatment) and are the average (n=3)±S.D.*, P<0.05; **, P<0.005; ^#, P<0.0005. (C) ELISA determination of secreted Aβ in the conditioned media of the experiment described in (A). Results are expressed as percent of control (no treatment) and are the average (n=3)±S.D.*, P<0.05; **, P<0.005. (F) CHO cells over-expressing either ATase1 or ATase2 were treated with compound 9 (10 μM) for 48 hours prior to Western blot assessment of ATase1 and ATase2 levels in total cell lysates.\nFIG. 13. Compound 9 decreases the levels of both ATase1 and ATase2. (A) H4 cells were treated with the increasing concentrations of compound 9 for 48 hours prior to Western blot assessment of BACE1 and ATase1/ATase2 levels in total cell lysates. (B-D) Quantification of changes are expressed as percent of control (no treatment) and are the average (n=3)±S.D.*, P<0.05; **, P<0.005; ^#, P<0.0005.\nWestern blotting was performed on a 4-12% Bis-Tris SDS-PAGE system (NuPAGE; Invitrogen, Carlsbad, Calif., USA) as described previously (Costantini et al., 2006; Jonas et al., 2008; Jonas et al., 2010; Ko and Puglielli, 2007; Ko and Puglielli, 2009; Pehar et al., 2010). The following antibodies were used in this study: anti-acetylated lysine (monoclonal; cat. no. ab409; Abcam, Cambridge, Mass., USA); anti-BACE1 (polyclonal; cat. no. ab2077; Abcam); anti-Myc (monoclonal; cat. no. sc-40; santa cruz, Santa Cruz, Calif., USA); anti-ATases/NAT8 (polyclonal; cat. no. AP4957c; Abgent, San Diego, Calif., USA); anti-actin (monoclonal; cat. no. A1978; Sigma, St Louis, Mo., USA); anti-C99 (monoclonal; cat. no. M066-3; MBL, Woburn, Mass., USA); anti-acetylated H3 (polyclonal; cat. no. 06-599, Millipore, Billerica, Mass.); anti-acetylated H4 (polyclonal; cat. no. 06-866, Millipore, Billerica, Mass.); anti-αPCNA (polyclonal; cat. no. […]"}, "[6]": {"conditions": "Lineweaver-Burk plot, acetyl-CoA varied"}}, "data": [{"compound": "O=c1c(Cl)c2oc3ccccc3nc-2c2ccccc12", "note": "[Compound 9]", "values": [{"measurement": "IC50", "setting": "[1]", "result": "~0.79", "unit": "µM"}, {"measurement": "kinetics of inhibition for acetyl-CoA, ATase2", "setting": "[1]; [6]", "result": "non-competitive inhibition"}, {"measurement": "IC50", "setting": "[2]", "result": "~3.9", "unit": "µM"}, {"measurement": "kinetics of inhibition for acetyl-CoA, ATase1", "setting": "[2]; [6]", "result": "competitive inhibition"}, {"measurement": "BACE1 levels in brain homogenates", "setting": "[3]", "result": "marked reduction"}, {"measurement": "inhibition of in vitro activity of p300/CBP", "setting": "[4]", "result": "neither compound inhibited"}, {"measurement": "endogenous levels of ATase1 and ATase2", "setting": "[5]; 10 μM", "result": "significantly down-regulate"}, {"measurement": "levels of the ATases with increasing concentrations", "setting": "[5]; increasing concentrations", "result": "dose-dependent decrease"}]}]}
